Test results as given in US20250318525A1, “COMPOSITIONS TO CONTROL THE RELEASE RATES OF CHEMICAL PESTICIDES” (priority 2020, published 2025).
In brackets after ≈: the same amount, converted by molar mass. Where two headings read alike, the source gives them in different places.

Columns and labels:
[1] = Benzoic acid release from benzoic acid salt tablets (Example 21); type: physicochemical; conditions: 1 L stirred deionized water, room temperature, FIG. 30
Protocol: Benzoic acid (BA) is a structural analogue to dicamba with its carboxylic acid in the benzyl position. BA salts were prepared by mixing a stoichiometric amount of metal hydroxide with benzoic acid in deionized water for a minimum of 12 hours. The resulting solids were filtered out of solution and dried in a dehydrator for 12 hours at 120° F. These were then blended with silt in a mortar and pestle and pressed on a desktop tablet press into 6 mm tablets (average tablet weight 0.093 g).
• A. 0.1 g BA, 0.4 g silt • B. 0.1 g Mg(BA)2, 0.4 g silt • C. 0.1 g Ca(BA)2, 0.4 g silt • D. 0.1 g Cu(BA)2, 0.4 g silt • E. 0.1 g Na benzoate, 0.4 g silt
These tablets were immersed in 1 L, stirred (60 rpm), room temperature, deionized water with two tablets per jar. […] A trend can be expected, but not predicted. Based on this, a trend could also be expected when dicamba is paired with metal ions.

[2] = 2,4D release from tablets containing preformed 2,4D complexes (Examples 8, 10, 11); type: physicochemical; conditions: 20% 2,4D tablets in silt, 1 L deionized water, 20° C., 60 rpm, FIGS. 16, 18, 19
Protocol: The resulting solids were filtered and resuspended in deionized water with stirring for 15 min., then filtered again. The solids were dried to constant mass in a food dehydrator 120° F.
The resulting tablets were immersed in 1 L of deionized water at 20° C. and stirred at 60 rpm for the designated time period.

[3] = Terrestrial sand bed with 2,4D salts and modeled rain events (Example 24); type: physicochemical; conditions: 7×200 mL flushes of deionized water, FIG. 33
Protocol: 200 mL of sand was layered in a Buchner funnel with filter paper. 2,4D salts were blended with 5.0 g of sand, and layered atop the 200 mL sand bed and exposed to 7×200 mL flushes of deionized water. 2,4D concentration was measured in the flush water to study how the associated metal impacted how rapidly 2,4D was lost from the surface.
In a terrestrial application, 2,4D lost from the surface would no longer be available to treat the target plant.

[4] = Release from dual active tablets, copper-endothall salt and Mg(triclopyr)2 or Ca(triclopyr)2 (Example 19); type: physicochemical; conditions: tablets with Mg(triclopyr)2 or Ca(triclopyr)2, 1 L stirred deionized water, both formulations, FIG. 28
Protocol: Formulations were prepared with 33 weight percent each of copper-endothall salt, Mg(triclopyr)2 or Ca(triclopyr)2 salt, and silt. Formulations were mixed using a blender and then pressed into 6 mm tablets (average weight of 0.082 g/tablet) using a desktop tablet press.
• A. 0.5 g Endothall (Cu), 0.5 g triclopyr (Ca), 0.5 g silt • B. 0.5 g Endothall (Cu), 0.5 g triclopyr (Mg), 0.5 g silt
(§1) The resulting tablets were immersed in 1 L of stirred deionized water (60 rpm). […] The copper endothall salt portion of the formulation releases rapidly within 24 hours for both formulations.

[5] = Release from dual active tablets, copper-endothall salt and Mg(2,4D)2 or Ca(2,4D)2 (Example 18); type: physicochemical; conditions: tablets with Mg(2,4D)2 or Ca(2,4D)2, 1 L stirred deionized water, both formulations, FIG. 27
Protocol: Formulations were mixed using a blender and then pressed into 6 mm tablets (average weight of 0.082 g/tablet) using a desktop tablet press. Exact Formulations: • A. 0.5 g Endothall (Cu), 0.5 g 2,4D (Ca), 0.5 g silt • B. 0.5 g Endothall (Cu), 0.5 g 2,4D (Mg), 0.5 g silt
as §1

[6] = TFM release when paired with bases of increasing solubility; type: physicochemical
Excerpt: If a weak base is paired with the TFM, the solubilization of TFM can be controlled by the basicity and/or the solubility of the weak base.

[7] = as listed in FIG. 36
physchem = conditions: water

## O=C([O-])c1ccccc1.O=C([O-])c1ccccc1.[Ca+2] [Ca(BA)2]
[1]
  benzoic acid release rate, comparison: releases significantly faster than BA

## O=C([O-])COc1ccc(Cl)cc1Cl.O=C([O-])COc1ccc(Cl)cc1Cl.[Cu+2] [Cu(2,4D)2]
[2]
  2,4D release rate, comparison: the slowest of all
[3]
  tolerance of 2,4D salt on sand bed to water flushes: most tolerant to frequent exposure to rain or watering events

## O=C([O-])COc1ccc(Cl)cc1Cl.[Na+] [Na(2,4D)]
[2]
  2,4D release rate, comparison: releases the fastest

## O=C(O)COc1ccc(Cl)cc1Cl [Ca(2,4D)2]
[2]; listed as premade calcium complex
  2,4D release rate, comparison: not significantly slower

## O=C([O-])C1C2CCC(O2)C1C(=O)[O-].[Cu+2] (stereo not drawn) [copper endothall salt]
[4]
  time for release of endothall portion: ≤ 24 h
[5]
  time for release of endothall portion: ≤ 24 h

## O=[N+]([O-])c1ccc(O)cc1C(F)(F)F [TFM, 3-trifluoromethyl-4-nitrophenol]
[6]
  TFM release rate, order by paired base: Mg(OH)2<Ca(OH)2<<<KOH

## O=C([O-])COc1ccc(Cl)cc1Cl.O=C([O-])COc1ccc(Cl)cc1Cl.[Fe+2] [Fe(2,4D)2]
[7]
  solubility: 1860 mg/L
[2]
  2,4D release rate, comparison: releases more slowly than 2,4D

## O=C(O)COc1ccc(Cl)cc1Cl [2,4D, 2,4-dichlorophenoxyacetic acid, reference compound]
physchem
  solubility: 740 µg/mL (≈ 3.35 mM)
[2]
  2,4D release rate, comparison: releases significantly faster than the Ca(2,4D)2
